Laboratory results reported in patent publication US12422427B2, “Compounds for treatment of diseases and methods of screening therefor” (Max-Planck-Gesellschaft zur Förderung der Wissenschaften …, priority 2018, dated 2025).

Assays:
[1] = target: T1, G156E FUS GFP (Homo sapiens, UniProt P35637, G156E); assay: In vitro FUS GFP solidification (aging, fibre formation, FRAP); type: biochemical; settings: for fibre formation of G156E FUS / hardening of FUS droplets (FRAP mobile fraction): 30 μM, aging while shaking, 1 mM DTT
T1 construct: His MBP (N, cleaved yes); made in house; host or cells: baculovirus/insect cell expression system
T1 sequence (P35637 1-526 G156E): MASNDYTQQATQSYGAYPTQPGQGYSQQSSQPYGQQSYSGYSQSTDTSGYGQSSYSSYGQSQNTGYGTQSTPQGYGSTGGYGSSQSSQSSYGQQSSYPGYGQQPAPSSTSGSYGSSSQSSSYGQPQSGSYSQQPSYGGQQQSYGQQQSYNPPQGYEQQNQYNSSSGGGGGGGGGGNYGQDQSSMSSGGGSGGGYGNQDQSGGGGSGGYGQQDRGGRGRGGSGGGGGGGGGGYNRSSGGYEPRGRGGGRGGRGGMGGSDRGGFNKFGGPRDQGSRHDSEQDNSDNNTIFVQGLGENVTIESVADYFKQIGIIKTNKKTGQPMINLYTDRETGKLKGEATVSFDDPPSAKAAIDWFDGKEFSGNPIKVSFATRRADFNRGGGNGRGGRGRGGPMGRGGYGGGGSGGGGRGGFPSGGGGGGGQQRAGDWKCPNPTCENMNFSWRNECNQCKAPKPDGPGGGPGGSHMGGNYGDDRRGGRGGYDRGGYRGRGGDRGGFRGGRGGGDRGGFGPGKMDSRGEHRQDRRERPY
Procedure: Therefore, hardening and fibre formation, another kinetic phenomenon, were analysed. In vitro FUS droplets ‘age’ over time, first hardening then tending to form amyloid/prion-like fibres. This is accelerated for G156E FUS, a mutation associated with familial ALS.
For in vitro solidification assays, FUS GFP in storage buffer was diluted in water to give 10 μM FUS, 50 mM Tris·HCl pH 7.4 and 1 mM DTT in a 20 μl volume in non-binding clear bottom 384 well plates (Greiner Bio-One, 781906). […] Fibre and droplet formation were analysed by widefield epifluorescence using a DeltaVision Elite microscope (GE Healthcare Life Sciences) with a Plan ApoN 60× NA 1.4 oil immersion objective (Olympus) and an sCMOS camera (PCO). For salt sensitivity of droplet formation FUS GFP in storage buffer was diluted in the appropriate concentration of KCl pre-mixed with compound or DMSO to generate the final KCl concentration series with 30 μM compound concentration and 0.3% DMSO.
Fluorescence recovery after photobleaching (FRAP) of FUS GFP droplets and fibres was performed on a Nikon TiE inverted microscope with a Nikon Apo 100× NA 1.49 oil immersion objective using a Yokogawa CSU-X1 spinning disc head and an Andor iXon EM+ DU-897 EMCCD camera. 10×10 px regions were bleached for […] with a 6 mW 405 nm laser using an Andor FRAPPA beam delivery unit then imaged for 5 min at 5 Hz. Recovery curve half-life and mobile fraction were calculated in ImageJ.

[2] = test system: EWSR1, TIAL1, PABPC1, G3BP1; assay: Panel of HeLa lines expressing GFP-labelled stress granule proteins, arsenate stress; type: cell-based; settings: 1 mM arsenate, 10 μM compound
Procedure: It was anticipated that a useful therapeutic would prevent all PLD-containing stress granule proteins from localising to stress granules. The inventors used 1 mM arsenate to stress a panel of HeLa cell lines expressing GFP fusions of stress granule proteins (EWSR1, TIAL1, PABPC1, G3BP1) with either no treatment or 10 μM lipoic acid or lipoamide.
Compound effects were assessed under a variety of conditions in HeLa or iPS cells expressing wild-type or P525L FUS GFP by live cell imaging. Different combinations of 1 h pre-treatment compound or pre-stress with arsenate followed by 1 h treatment with compound and/or stress with arsenate. Unless otherwise indicated, cells were pre-treated for 1 h using 10 μM compound from 10 mM stock in DMSO (or an equal volume of DMSO control) then stressed for 1 h with 1 mM potassium arsenate still in the presence of compound. GFP fluorescence was imaged by widefield epifluorescence using an inverted Olympus IX71 microscope with an Olympus 100× NA 1.4 Plan Apo oil immersion objective and a CoolSNAP HQ CCD camera (Photometrics), using a DeltaVision climate control unit (37° C., 5% CO2) (Applied Precision). The kinetics of pre-stress followed by treatment was analysed from images captured at 2 min intervals for 100 min, for single time points images were captured after 1 h unless otherwise indicated.

[3] = test system: HeLa cells expressing FUS GFP; assay: Stress granule formation in HeLa FUS GFP cells under different stresses; type: cell-based; settings: 10 μM; mitochondrial (rotenone), hyperosmotic (sorbitol) or arsenate stress
Procedure: The stressor, arsenate, will react with the thiol groups of lipoamide. Therefore, to exclude the possibility that lipoamide is acting only by removing the stressor, so it was further tested whether lipoic acid can prevent stress granule formation triggered by other stresses than arsenate (an oxidative) stress: Mitochondrial electron transport chain inhibition (rotenone), heat stress (42° C.), hyperosmotic stress (sorbitol, a non-metabolisable sugar), glycolysis inhibition ([…] in the absence of glucose) or serum starvation.
Various cellular stresses were achieved by replacing 1 h 1 mM potassium arsenate treatment with other conditions: 100 μM rotenone (R8875, Sigma Aldrich) from a 1 M stock in DMSO for 2 h (mitochondrial stress). […] Sorbitol (S1876, Sigma Aldrich) from a 4 M stock in H2O for 1 h (osmotic stress). 42° C. in normal growth medium for 30 m (heat stress). […] Appropriate solvent controls were used.

[4] = test system: HeLa cells expressing FUS GFP; assay: HeLa cell compound dose responses (FUS GFP, arsenate stress); type: cell-based
[5] = 1 h pre-treatment, 1 h arsenate stress

| fibre formation of G156E FUS [1] | hardening of FUS droplets (FRAP mobile fraction) [1] | EC50 reducing stress granule number, compared among compounds ([4]; 1 h 1 mM arsenate stress) | EC50 ([4]; Homo sapiens, HeLa FUS GFP, 1 h 1 mM arsenate stress, read-out: cellular EC50) [µM] | Compound | FRAP of aged G156E FUS GFP condensates ([1]; 10 μM lipoamide, dextran crowding, vs 0.1% DMSO) | localisation of EWSR1, TIAL1, PABPC1, G3BP1 GFP to stress granules [2] | stress granule formation [3] | nuclear/cytoplasm FUS partition, dose response [4, 5] | stress granule number, dose response [4, 5] |
| --- | --- | --- | --- | --- | --- | --- | --- | --- | --- |
| delayed fibre formation | delayed hardening of FUS droplets | comparable EC50 | ~10 | NC(=O)CCCCC1CCSS1 (racemic) [lipoamide, 5-(1,2-dithiolan-3-yl)pentanamide] | maintain large FUS GFP mobile fraction and short FRAP half-life | localised to stress granules in the absence of treatment, and not in the presence | reduced stress granule formation | increased nuclear/cytoplasm FUS partition | reducing the number of stress granules |
| delayed fibre formation | delayed hardening of FUS droplets | comparable EC50 |  | O=C(O)CCCCC1CCSS1 (racemic) [lipoic acid, 5-(1,2-dithiolan-3-yl)pentanoic acid] |  | localised to stress granules in the absence of treatment, and not in the presence | reduced stress granule formation |  |  |
